Source: the NIST ThermoML archive (doi:10.1021/je034102r)

Assay: molar heat capacity at constant pressure
Details: 101.33 kPa, Liquid, heat bridge-scanning calorimeter

CCCCn1cc[n+](C)c1.F[P-](F)(F)(F)(F)F [1-butyl-3-methylimidazolium hexafluorophosphate]
Details | molar heat capacity at constant pressure [J/K/mol]
353.76 K | 441.34
353.89 K | 441.34
354.01 K | 441.62
354.29 K | 441.9
354.41 K | 441.9
354.54 K | 441.62
354.66 K | 441.9
354.79 K | 442.19
354.91 K | 441.9
355.04 K | 442.19
355.16 K | 442.47
355.29 K | 442.47
355.41 K | 442.47
355.54 K | 442.47
355.81 K | 442.76
355.94 K | 443.04
356.06 K | 442.76
356.19 K | 442.76
356.31 K | 443.04
356.44 K | 443.04
356.56 K | 443.32
356.69 K | 443.32
356.81 K | 443.61
357.1 K | 443.32
357.24 K | 443.61
357.36 K | 443.61
357.49 K | 443.61
357.61 K | 443.61
357.74 K | 443.89
357.86 K | 443.89
357.99 K | 444.18
358.12 K | 444.18
358.24 K | 444.18
358.37 K | 444.18
358.64 K | 444.46
358.76 K | 444.75
358.89 K | 444.46
359.02 K | 444.75
359.14 K | 444.75
359.27 K | 444.75
359.39 K | 445.03
359.52 K | 445.03
359.64 K | 445.31
359.93 K | 445.31
360.05 K | 445.31
360.18 K | 445.6
360.3 K | 445.6
360.43 K | 445.88
360.55 K | 445.88
360.68 K | 445.88
360.8 K | 446.17
360.93 K | 446.17
361.05 K | 446.17
361.18 K | 446.45
361.45 K | 446.45
361.58 K | 446.45
361.7 K | 446.45
361.83 K | 446.45
361.95 K | 446.73
362.08 K | 446.73
362.2 K | 447.02
362.33 K | 447.02
362.45 K | 447.02
362.73 K | 447.02
362.86 K | 447.02
362.98 K | 447.3
363.12 K | 447.3
363.25 K | 447.3
363.37 K | 447.3
363.5 K | 447.59
363.62 K | 447.59
363.75 K | 447.87
363.87 K | 447.59
364 K | 447.87
364.27 K | 447.87
364.4 K | 447.87
364.52 K | 447.87
364.65 K | 448.16
364.77 K | 448.16
364.9 K | 448.16
365.02 K | 448.16
365.15 K | 448.44
365.28 K | 448.16
365.56 K | 448.44
365.69 K | 448.44
365.81 K | 448.72
365.94 K | 448.72
366.06 K | 448.72
366.19 K | 448.72
366.32 K | 448.72
366.44 K | 449.01
366.57 K | 449.01
366.69 K | 449.01
366.82 K | 449.29
367.09 K | 449.29
367.22 K | 449.29
367.34 K | 449.58
367.47 K | 449.86
367.59 K | 449.86
367.72 K | 449.86
367.84 K | 449.86
367.97 K | 449.86
368.1 K | 450.43
368.38 K | 450.14
368.51 K | 450.43
368.63 K | 450.43
368.76 K | 450.43
368.88 K | 450.43
369.02 K | 450.43
369.15 K | 450.43
369.27 K | 450.43
369.4 K | 450.71
369.53 K | 450.71
369.65 K | 450.71
369.92 K | 452.13
370.05 K | 452.13
370.17 K | 451.85
370.3 K | 451.28
370.43 K | 451.57
370.55 K | 451.28
370.68 K | 451.28
370.8 K | 451.57
370.93 K | 451.57
371.21 K | 451.85
371.34 K | 452.13
371.47 K | 452.13
371.59 K | 451.85
371.72 K | 452.13
371.84 K | 451.85
371.97 K | 452.13
372.09 K | 452.13
372.22 K | 452.13
372.35 K | 452.13
372.47 K | 452.7
372.74 K | 452.99
372.87 K | 452.7
372.99 K | 452.7
373.12 K | 452.7
373.25 K | 452.99
373.37 K | 453.56
373.5 K | 453.84
373.62 K | 453.56
373.75 K | 452.7
374.03 K | 453.27
374.16 K | 453.27
374.29 K | 453.27
374.41 K | 453.27
374.54 K | 454.41
374.67 K | 455.26
374.79 K | 454.69
374.92 K | 454.69
375.06 K | 454.69
375.18 K | 454.41
375.31 K | 454.12
375.58 K | 453.84
375.71 K | 453.84
375.83 K | 453.56
375.96 K | 453.84
376.09 K | 454.69
376.21 K | 455.83
376.34 K | 455.83
376.46 K | 455.54
376.59 K | 454.98
376.87 K | 454.41
376.99 K | 454.41
377.12 K | 454.41
377.25 K | 454.98
377.37 K | 455.26
377.5 K | 454.98
377.63 K | 454.69
377.75 K | 454.69
377.88 K | 454.98
378 K | 455.26
378.13 K | 455.54
378.4 K | 455.54
378.53 K | 455.26
378.65 K | 455.54
378.78 K | 455.54
378.91 K | 455.54
379.03 K | 455.54
379.16 K | 455.83
379.29 K | 456.11
379.41 K | 457.53
379.7 K | 456.11
379.83 K | 456.11
379.95 K | 456.4
380.08 K | 456.68
380.21 K | 456.68
380.33 K | 456.68
380.46 K | 456.68
380.59 K | 456.68
